From patent publication US6133039A, “In vivo method for determination of oxidative stress” (Washinton University, priority 2000, dated 2000)

What was measured:
[1] = 3-nitrotyrosine given to animals; Tabrizi-Fard et al.; cited from earlier work
[2] = Metabolic fate of radiolabeled dityrosine injected intravenously into mice (blood, tissue and urine radioactivity); format: in vivo
Method: Mice were injected with 2×10^5 cpm of [^14 C]dityrosine. FIG. 3A: Blood was collected at the indicated times by retro-orbital bleeding. FIG. 3B: Animals were sacrificed at the indicated times after injection of [^14 C]dityrosine. Recovery of radiolabeled material in tissues and urine was quantified by scintillation spectroscopy.
(§1) o,o'-[^14 C]Dityrosine (2×10^5 cpm) was injected into the animals intravenously. Plasma was centrifuged (400×g for 20 min at 4° C.) from blood collected by retro-orbital bleeding. Tissue samples were collected from animals killed by cervical dislocation, weighed and then homogenized in deionized water. Radioactivity in tissue homogenates, plasma, and urine was determined by liquid scintillation spectroscopy (Beckman LS 3801) with correction for quenching. [^14 C]Dityrosine was prepared from L-[^14 C]tyrosine (American Radiolabeled Chemicals Co.; St. Louis, Mo.) and o,o'-[^13 C12 ]dityrosine was prepared from L-[^13 C6 ]tyrosine (Cambridge Isotope Inc.; Andover, Mass.) using horseradish peroxidase (Boehringer Mannheim Biochemicals; Indianapolis, Ind.) and H2 O2 (Fisher Scientific Co.; Pittsburgh, Pa.) and isolated by reverse-phase HPLC; (27). o,o'-[^14 C]Dityrosine and radiolabeled material in urine were analyzed by HPLC (27) using a reverse-phase column (ODS ultrasphere, 250 mm×4.6 mm, particle size 5 μm.; Beckman,) and a flow rate of 1 ml/min. The column was equilibrated with 100% solvent A (1% acetic acid in water). Compounds were eluted with a discontinuous gradient of solvent B (1% acetic acid in methanol). The gradient was 0%-10% solvent B over 10 min, 10% solvent B for 4 min, 10%-100% solvent B over 5 min and 100% solvent B for 10 min. Prior to HPLC analysis, urinary amino acids were isolated by solid-phase extraction as outlined above. Recovery of radiolabeled material from urine subjected to this procedure was>90%. Radioactivity in each HPLC fraction was quantified by liquid scintillation spectroscopy.

[3] = Reverse-phase HPLC analysis of urine of animals injected intravenously with o,o'-[^14 C]dityrosine; format: in vivo, mice; details: urine after intravenous injection
Method: Urine collected from animals injected with [^14 C]dityrosine was subjected to reverse-phase HPLC analysis with monitoring of radioactivity by scintillation spectroscopy.
as §1, with “Compounds were eluted with a discontinuous gradient of solvent B (1% acetic acid in methanol). The gradient was 0%-10% solvent B over 10 min, 10% solvent B for 4 min, 10%-100% solvent B over 5 min and 100% solvent B for 10 min. Prior to HPLC analysis, urinary amino acids were isolated by solid-phase extraction as outlined above. Recovery of radiolabeled material from urine subjected to this procedure was>90%.” left out

[4] = tested on: peritoneal phagocytes of wild-type mice; assay: Protein-bound o,o'-dityrosine in peritoneal leukocytes activated in vivo with zymosan, isotope dilution GC/MS; design: species or system mice (C57BL/6J)
Method: (§2) Thioglycolate-elicited peritoneal inflammatory cells were activated in vivo with zymosan. FIG. 2A: At the indicated time (n=3 animals) or FIG. 2B: 3 h after injection of zymosan, protein-bound o,o'-dityrosine in cellular proteins was quantified by isotope dilution GC/MS.
(§3) The animal studies committee of Washington University School of Medicine in St. Louis approved all protocols. The C57BL/6J mice used for these experiments were obtained from Jackson Laboratories (Bar Harbor, […].) and bred and maintained under pathogen-free conditions. Impaired O2^.cndot.- by phorbol ester-stimulated neutrophils isolated from CGD mice deficient in gp91 phox (13) was confirmed by monitoring the superoxide dimutase inhibitable reduction of ferricytochrome c (10). Mice were fed rodent diet 5001 (Harlan-Teklad, Madison, Wis.). Between ages 9 and 11 weeks, the mice were injected with one ml of 4% thioglycollate to recruit leukocytes into the peritoneum. The leukocytes were activated 20 hours (h) later by intraperitoneal injection of zymosan (250 mg/kg). Control animals were injected with one ml of buffer A (138 mM NaCl, 3 mM KCl, 0.1 M sodium phosphate, pH 7.4). Prior to and every 2 h during urine collection, the animals were injected intraperitoneally with 2 ml of buffer A.
Animals were killed by decapitation after metophane-induced anesthesia. After the abdominal wall was washed with 95% ethanol, leukocytes were harvested from the peritoneum using a siliconized glass pipette. The peritoneum was lavaged 3 times with 4 ml of ice-cold Hanks' Balanced Salt Solution (HBSS) containing 100 μM DTPA. Cells were suspended in ice-cold HBSS, collected by low speed centrifugation, and stored at -80° C. until analysis. […]
(§4) Amino acids were converted to their n-propyl esters, heptafluorobutyryl derivatives and quantified by isotope dilution gas chromatography/mass spectrometry (GC/MS) with selected ion monitoring (20,21). […] The ions monitored were: L-tyrosine, m/z 417 and 595; L-[^13 C6 ]tyrosine, m/z 423 and 601; o,o'-dityrosine, m/z 1030 and 1208; o,o'-[^13 C12 ]dityrosine, m/z 1042 and 1220.

[5] = tested on: peritoneal phagocytes; assay: Recruitment of peritoneal cells by thioglycollate; format: in vivo, mice
Source text: as §3
Animals were killed by decapitation after metophane-induced anesthesia. After the abdominal wall was washed with 95% ethanol, leukocytes were harvested from the peritoneum using a siliconized glass pipette. The peritoneum was lavaged 3 times with 4 ml of ice-cold Hanks' Balanced Salt Solution (HBSS) containing 100 μM DTPA. Cells were suspended in ice-cold HBSS, collected by low speed centrifugation, and stored at -80° C. until analysis.
To determine whether white blood cells oxidatively damage proteins in vivo, isotope dilution GC/MS was used to quantify levels of o,o'-dityrosine in mouse peritoneal phagocytes. To recruit neutrophils into the peritoneum, the animals were injected with thioglycollate, a chemical irritant. Twenty hours after this first injection, the animals were given an intraperitoneal injection of zymosan, which stimulates phagocytes to produce H2 O2 and secrete myeloperoxidase into the phagolysosome (6). Thioglycollate-injected mice typically yielded 20-40×10^6 peritoneal cells. Neutrophils, mononuclear cells, and eosinophils represented 67±4%, 30±4%, and<1% of the harvested phagocytes (n=6 animals).

[6] = tested on: peritoneal phagocytes of CGD mice; assay: Protein-bound o,o'-dityrosine in peritoneal phagocytes, isotope dilution GC/MS, CGD mice; format: in vivo; details: 3 hours of zymosan stimulation, mice deficient in NADPH oxidase
Method: as §2
as §3, with “The leukocytes were activated 20 hours (h) later by intraperitoneal injection of zymosan (250 mg/kg). Control animals were injected with one ml of buffer A (138 mM NaCl, 3 mM KCl, 0.1 M sodium phosphate, pH 7.4). Prior to and every 2 h during urine collection, the animals were injected intraperitoneally with 2 ml of buffer A.” left out
as §4

## N[C@@H](Cc1ccc(O)c([N+](=O)[O-])c1)C(=O)O [3-nitrotyrosine]
[1]
  amount excreted into urine: Minimal amounts

## N[C@@H](Cc1ccc(O)c(-c2cc(C[C@H](N)C(=O)O)ccc2O)c1)C(=O)O [o,o'-[^14 C]dityrosine]
[2]; 5 min after intravenous injection
  radiolabeled material lost from the blood: more than 50%
[2]; 1 h after intravenous injection
  radioactivity recovered in the urine: Thirty
[2]; 3 h after intravenous injection
  radioactivity recovered in the urine: 65%
[2]; 4 h after intravenous injection
  radioactivity recovered in the urine: 81%
[2]; after intravenous injection
  radiolabeled material in blood, liver, spleen, and heart: essentially undetectable
  radiolabeled material present in kidney: < 5%
[2]; intravenous
  apparent half-life in the blood (slower phase): ~ 30 min
  clearance kinetics from the blood: biphasic kinetics
[3]
  radioactivity in urine co-migrating with authentic o,o'-[^14 C]dityrosine: More than 80%

## NC(Cc1ccc(O)c(-c2cc(CC(N)C(=O)O)ccc2O)c1)C(=O)O (centres unmarked) [o,o'-dityrosine]
[2]; between 3 h and 4 h after intravenous injection
  recovery of radioactive material in the urine (in words): recovered almost quantitatively
[4]; before zymosan
  o,o'-dityrosine content of resident thioglycollate-elicited neutrophils: ~ 50 μmol per mol tyrosine

## thioglycollate
[5]; n=6 animals
  eosinophils among harvested phagocytes: < 1%
  mononuclear cells among harvested phagocytes: 30±4%
  neutrophils among harvested phagocytes: 67±4%
[5]; thioglycollate-injected mice
  peritoneal cells yielded: 20-40 ×10^6 peritoneal cells

## zymosan
[4]; after zymosan injection
  time of peak of protein-bound o,o'-dityrosine: 3 h
[4]; neutrophils exposed to zymosan in vivo
  increase of o,o'-dityrosine in cellular proteins: 4 fold
[6]
  o,o'-dityrosine in phagocyte proteins: undetectable
[6]; p<0.0005
  increase in protein-bound dityrosine: completely abrogated
